Measured values: the supplement of paper PMC10307832

Tests used:
Assay in all cases: relative viability (nuclei count vs DMSO), 5 days (fraction); higher = more cells survive
Bortezomib + Phenformin = compound: CC(C)C[C@H](NC(=O)[C@H](Cc1ccccc1)NC(=O)c1cnccn1)B(O)O [Bortezomib] + N=C(N)NC(=N)NCCc1ccccc1 [Phenformin] (partner 250 µM)
Method in brief: (§1)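 One day after seeding in 1536-well plates, lung cancer cell lines were dosed by pin tool. Dosing was either single-drug or a fixed anchor-drug dose plus five library-drug doses (not always all listed) in √10 steps. After 5 days, nuclei were stained in one fix-and-stain step and counted on 4× images, and relative viability is the nuclei count of treated wells over that of vehicle wells, given as the median of duplicate plates.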

Bortezomib + AZD7762 = compound: CC(C)C[C@H](NC(=O)[C@H](Cc1ccccc1)NC(=O)c1cnccn1)B(O)O [Bortezomib] + NC(=O)Nc1cc(-c2cccc(F)c2)sc1C(=O)N[C@H]1CCCNC1 [AZD7762] (partner 0.2 µM)
Method in brief: as §1

[1] = compound: CC1=CC(=NN1)NC2=CC(=NC(=N2)/C=C/C3=CC=CC=C3)N4CCN(CC4)C + CS(=O)(=O)N1CCN(Cc2cc3nc(-c4cccc5[nH]ncc45)nc(N4CCOCC4)c3s2)CC1 [Pictilisib] (partner 1 µM)
Method in brief: as §1

Obatoclax + Lapatinib = compound: COC1=CC(c2cc3ccccc3[nH]2)=N/C1=C\c1[nH]c(C)cc1C [Obatoclax] + CS(=O)(=O)CCNCc1ccc(-c2ccc3ncnc(Nc4ccc(OCc5cccc(F)c5)c(Cl)c4)c3c2)o1 [Lapatinib] (partner 2 µM)
Method in brief: as §1

| Cell Line | relative viability (Bortezomib + Phenformin; first compound 0.0002 µM) | relative viability (Bortezomib + Phenformin; first compound 0.000632 µM) | relative viability (Bortezomib + Phenformin; first compound 0.002 µM) | relative viability (Bortezomib + Phenformin; first compound 0.006325 µM) | relative viability (Bortezomib + Phenformin; first compound 0.02 µM) | relative viability (Bortezomib + AZD7762; first compound 0.0002 µM) | relative viability (Bortezomib + AZD7762; first compound 0.000632 µM) | relative viability (Bortezomib + AZD7762; first compound 0.002 µM) | relative viability (Bortezomib + AZD7762; first compound 0.006325 µM) | relative viability (Bortezomib + AZD7762; first compound 0.02 µM) | relative viability ([1]; first compound 0.08 µM) | relative viability ([1]; first compound 0.253 µM) | relative viability ([1]; first compound 0.8 µM) | relative viability ([1]; first compound 2.53 µM) | relative viability ([1]; first compound 8 µM) | relative viability (Obatoclax + Lapatinib; first compound 0.01 µM) | relative viability (Obatoclax + Lapatinib; first compound 0.03162 µM) | relative viability (Obatoclax + Lapatinib; first compound 0.1 µM) | relative viability (Obatoclax + Lapatinib; first compound 0.3162 µM) | relative viability (Obatoclax + Lapatinib; first compound 1 µM) |
| --- | --- | --- | --- | --- | --- | --- | --- | --- | --- | --- | --- | --- | --- | --- | --- | --- | --- | --- | --- | --- |
| NCI-H2170 | 0.43 | 0.419 | 0.462 | 0.326 | 0.208 | 0.804 | 0.685 | 0.943 | 0.54 | 0.113 | 0.283 | 0.301 | 0.257 | 0.166 | 0.136 | 0.281 | 0.247 | 0.304 | 0.253 | 0.306 |
| NCI-H2347 | 0.493 | 0.512 | 0.594 | 0.298 | 0.257 | 0.888 | 0.695 | 0.73 | 0.553 | 0.276 | 0.63 | 0.342 | 0.777 | 0.417 | 0.333 | 0.933 | 0.901 | 0.542 | 0.89 | 0.857 |
| NCI-H2405 | 0.513 | 0.319 | 0.393 | 0.241 | 0.109 | 0.699 | 0.714 | 0.919 | 0.165 | 0.159 | 0.473 | 0.32 | 0.452 | 0.179 | 0.133 | 1.05 | 1.26 | – | 1.08 | 1.13 |
| NCI-H3122 | 0.391 | 0.368 | 0.404 | 0.121 | 0.105 | 0.976 | 1.09 | 1.03 | 0.784 | 0.11 | 0.588 | 0.345 | 0.659 | 0.428 | 0.291 | 0.987 | 1.05 | 0.964 | 1.03 | 1.03 |
| PC-3 [JPC-3] | 0.495 | 0.485 | 0.472 | 0.24 | 0.175 | 0.773 | 0.829 | 0.531 | 0.225 | 0.199 | 0.763 | 0.721 | 0.706 | 0.648 | 0.579 | 0.456 | 0.406 | 0.469 | 0.443 | 0.457 |
| PC-14 | 0.434 | 0.487 | 0.616 | 0.183 | 0.061 | 0.279 | 0.336 | 0.364 | 0.123 | 0.0742 | 0.651 | 0.635 | 0.56 | 0.199 | 0.0209 | 0.297 | 0.309 | 0.334 | 0.257 | 0.301 |
| RERF-LC-KJ | 0.377 | 0.42 | 0.415 | 0.337 | 0.272 | 0.819 | 1.12 | 1.12 | 0.966 | 0.409 | 0.593 | 0.519 | 0.495 | 0.27 | 0.168 | 0.837 | 0.832 | 0.843 | 0.831 | 0.859 |
